According to patent US20040122033A1, “Combination therapy for the treatment of obesity” (priority 2002, published 2004):
Read-outs that look alike come from different tables or passages of the source.

Key:
[1] = tested on: wild type, NPY KO mice, and AGRP-NPY double KO mice; test: CB-1 inverse agonist - NPY knock out mouse study (overnight food intake); assay type: in vivo; conditions: 3 mg/kg orally
Protocol: AM25 1 was given to wild type, NPY KO Mice, and AGRP-NPY double KO mice orally at 3 mg/kg. Overnight food intake was measured.

[2] = tested on: wild type and MCH1R KO mice; test: CB-1 inverse agonist - MCH1R knock out mouse study (2 hour and overnight food intake); assay type: in vivo; conditions: 5 mg/kg orally
Protocol: AM251 was given to wild type and MCH1R KO mice orally at 5 mg/kg. Two hour and overnight food intake were measured.

[3] = in vivo; cited from earlier work
[4] = tested on: Wild type or MCH1R KO mice; conditions: for 2 hour food intake: 1 μg MT-II icv at onset of dark cycle, vs aCSF vehicle
Protocol: Wild type or MCH1R KO mice were implanted with intracerebroventricular (icv) cannulae for icv administration of compounds. One microgram of MT-II was given by icv injection per animal at the onset of dark cycle and food intake was measured 2 hours post-injection. Overnight body weight differences were also measured. Artificial cerebrospinal fluid (aCSF) was used as a vehicle to dissolve MT-II.

With `Cc1c(C(=O)NN2CCCCC2)nn(-c2ccc(Cl)cc2Cl)c1-c1ccc(I)cc1` [AM251] as the compound, how does the overnight food intake ([1]; AGRP-NPY double KO mice) read?
Its overnight food intake is “significantly inhibits”.

What about the overnight food intake ([1]; NPY KO mice) of the same compound?
The overnight food intake was “significantly inhibits”.

And the overnight food intake ([1]; wild type mice)?
The overnight food intake was “significantly inhibits”.

What about the “2 hour food intake” value ([2]; MCH1R KO mice) of the same compound?
The value was “significantly inhibited”.

What about the overnight food intake ([2]; MCH1R KO mice, 5 mg/kg) of the same compound?
The overnight food intake was “inhibits”.

What about the overnight food intake ([2]; MCH1R KO mice, listed as AM 251, 5 mg/kg) of the same compound?
Its overnight food intake is “significantly inhibited”.

And the “2 hour food intake” value ([2]; wild type mice)?
Its value is “significantly inhibited”.

What about the overnight food intake ([2]; wild type mice, 5 mg/kg) of the same compound?
The overnight food intake was “inhibits”.

What about the overnight food intake ([2]; wild type mice, listed as AM 251, 5 mg/kg) of the same compound?
Its overnight food intake is “significantly inhibited”.

For `CC1(C)O[C@@H]2[C@@H](CO[C@@]3(COS(N)(=O)=O)OC(C)(C)O[C@@H]23)O1` [Topiramate], which weight loss [3] is on record?
Its weight loss is “increase weight loss”.

With Melanotan-II [MT-II] as the compound, how does the “overnight body weight compared to vehicle treated mice” value ([4]; MCH1R KO mice, 1 μg MT-II icv) read?
The value was “reduced body weight”.

And the “2 hour food intake” value ([4]; MCH1R KO mice)?
The value was “significantly inhibited”.

And the “decrease of overnight food intake” value ([4]; MCH-1R knock out mice, 1 μg MT-II icv, overnight)?
Its value is “greater than 80%”.

And the “decrease in food intake, MCH-1R knock out mice versus wild type mice” value ([4]; MT-II treated MCH-1R knock out mice compared with MT-II treated wild type mice, FIG. 1)?
The value was “significantly greater decrease in food intake”.

And the “overnight decrease in bodyweight, MCH-1R knock out mice versus wild type mice” value ([4]; MT-II treated MCH-1R knock out mice compared with MT-II treated wild type mice, FIG. 2)?
The value was “greater overnight decrease in bodyweight”.

What about the “overnight body weight compared to vehicle treated mice” value ([4]; wild type mice, 1 μg MT-II icv) of the same compound?
Its value is “reduced body weight”.

What about the “2 hour food intake” value ([4]; wild type mice) of the same compound?
The value was “significantly inhibited”.
